melting point | SMILES
238 °C (dec.) | Cn1nc(-c2nc(C(=O)O)c(N)nc2-c2ccccc2)ccc1=O [Example 19, 3-Amino-6-(1-methyl-6-oxo-1,6-dihydro-3-pyridazinyl)-5-phenyl-2-pyrazinecarboxylic acid]
157 to 159 °C | CC(C)n1nc(-c2nc(N3CCNCC3)c(N)nc2-c2ccccc2)ccc1=O [Example 112, 6-[5-amino-3-phenyl-6-(1-piperazinyl)-2-pyrazinyl]-2-isopropyl-3(2H)-pyridazinone]
173 to 175 °C | CC(C)n1nc(-c2nc(Oc3ccc(F)cc3)c(N)nc2-c2ccccc2)ccc1=O [Example 158, 6-[5-amino-6-(4-fluorophenoxy)-3-phenyl-2-pyrazinyl]-2-isopropyl-3(2H)-pyridazinone]
249 to 251 °C | CC(C)n1nc(-c2nc(S(C)(=O)=O)c(N)nc2-c2ccccc2)ccc1=O [Example 55, 6-[5-amino-6-(methylsulfonyl)-3-phenyl-2-pyrazinyl]-2-isopropyl-3(2H)-pyridazinone]
249 to 252 °C | Cn1nc(-c2nc(NCc3ccco3)c(N)nc2-c2ccccc2)ccc1=O [Example 124, 6-{5-amino-6-[(2-furylmethyl)amino]-3-phenyl-2-pyrazinyl}-2-methyl-3(2H)-pyridazinone]
208 to 210 °C | C=CCNc1nc(-c2ccc(=O)n(C(C)C)n2)c(-c2ccccc2)nc1N [Example 101, 6-[6-(allylamino)-5-amino-3-phenyl-2-pyrazinyl]-2-isopropyl-3(2H)-pyridazinone]
173 to 174 °C | COc1ccc(CNc2cnc(-c3ccccc3)c(-c3ccc(=O)n(C(C)C)n3)n2)cc1 [Example 49, 2-isopropyl-6-{6-[(4-methoxybenzyl)amino]-3-phenyl-2-pyrazinyl}-3(2H)-pyridazinone]
> 250 °C | Cn1nc(-c2nc(C(N)=O)c(N)nc2-c2ccccc2)ccc1=O [Example 18, 3-Amino-6-(1-methyl-6-oxo-1,6-dihydro-3-pyridazinyl)-5-phenyl-2-pyrazinecarboxamide]
211 to 214 °C | COc1nc(-c2ccc(=O)n(C(C)C)n2)c(-c2ccccc2)nc1N [Example 157, 6-(5-amino-6-methoxy-3-phenyl-2-pyrazinyl)-2-isopropyl-3(2H)-pyridazinone]
118 to 120 °C | CC(C)n1nc(-c2nc(OCc3ccccc3)c(N)nc2-c2ccccc2)ccc1=O [Example 162, 6-[5-amino-6-(benzyloxy)-3-phenyl-2-pyrazinyl]-2-isopropyl-3(2H)-pyridazinone]
202 to 205 °C | Cn1nc(-c2nc(-n3cccc3)c(N)nc2-c2ccccc2)ccc1=O [Example 148, 6-[5-amino-3-phenyl-6-(1H-pyrrol-1-yl)-2-pyrazinyl]-2-methyl-3(2H)-pyridazinone]
209 to 211 °C | CC(C)n1nc(-c2nc(C3=CCN(C)CC3)c(N)nc2-c2ccccc2)ccc1=O
220 to 221.5 °C | Cn1nc(-c2nc(-c3ccccc3)c(N)nc2-c2ccccc2)ccc1=O [Example 85, 6-(5-amino-3,6-diphenyl-2-pyrazinyl)-2-methyl-3(2H)-pyridazinone]
225 to 227 °C | CC(C)n1nc(-c2nc([S+](C)[O-])c(N)nc2-c2ccccc2)ccc1=O (centres unmarked) [Example 55, 6-[5-amino-6-(methylsulfinyl)-3-phenyl-2-pyrazinyl]-2-isopropyl-3(2H)-pyridazinone]
201 to 203 °C | CCn1nc(-c2nc(C#N)c(C#N)nc2-c2ccccc2)ccc1=O [Example 11, 5-(1-Ethyl-6-oxo-1,6-dihydro-3-pyridazinyl)-6-phenyl-2,3-pyrazinedicarbonitrile]
238 to 240 °C | CC(C)n1nc(-c2nc(C#CC3(O)CCCCC3)c(N)nc2-c2ccccc2)ccc1=O [Example 73, 6-{5-amino-6-[(1-hydroxycyclohexyl)ethynyl]-3-phenyl-2-pyrazinyl}-2-isopropyl-3(2H)-pyridazinone]
164 to 166 °C | CC(C)n1nc(-c2nc(Br)c(N=O)nc2-c2ccccc2)ccc1=O [Example 67, 6-(6-bromo-5-nitroso-3-phenyl-2-pyrazinyl)-2-isopropyl-3(2H)-pyridazinone]
192 to 194.5 °C | CC(C)n1nc(-c2nc(N3CCCC3)c(N)nc2-c2ccccc2)ccc1=O [Example 141, 6-[5-amino-3-phenyl-6-(1-pyrrolidinyl)-2-pyrazinyl]-2-isopropyl-3(2H)-pyridazinone]
211 to 214 °C | CSc1nc(-c2ccc(=O)n(C(C)C)n2)c(-c2ccccc2)nc1N [Example 54, 6-[5-amino-6-(methylthio)-3-phenyl-2-pyrazinyl]-2-isopropyl-3(2H)-pyridazinone]
192 to 194 °C | CC(C)n1nc(-c2nc(NCc3ccccn3)c(N)nc2-c2ccccc2)ccc1=O [Example 98, 6-{5-amino-3-phenyl-6-[(2-pyridylmethyl)amino]-2-pyrazinyl}-2-isopropyl-3(2H)-pyridazinone]
> 250 °C | Cn1nc(-c2nc(NCc3ccccn3)c(N)nc2-c2ccccc2)ccc1=O [Example 146, 6-{5-amino-3-phenyl-6-[(2-pyridylmethyl)amino]-2-pyrazinyl}-2-methyl-3(2H)-pyridazinone]

melting point | SMILES
202 to 204 °C | Cn1nc(-c2ncc(N)nc2-c2ccccc2)ccc1=O [Example 20, 6-(5-Amino-3-phenyl-2-pyrazinyl)-2-methyl-3(2H)-pyridazinone]
183 to 185 °C | CC(C)n1nc(-c2nc(N3CCCCC3)c(N)nc2-c2ccccc2)ccc1=O [Example 108, 6-[5-amino-3-phenyl-6-(1-piperidinyl)-2-pyrazinyl]-2-isopropyl-3(2H)-pyridazinone]
156 to 159 °C | Cn1nc(-c2nc(OCCc3ccccc3)c(N)nc2-c2ccccc2)ccc1=O [Example 187, 6-[5-amino-3-phenyl-6-(2-phenylethoxy)-2-pyrazinyl]-2-methyl-3(2H)-pyridazinone]
213 to 215 °C | CC(C)n1nc(-c2nc(C#C[Si](C)(C)C)c(N)nc2-c2ccccc2)ccc1=O
241 to 243 °C | CC(C)n1nc(-c2nc(N)c(C#N)nc2-c2ccccc2Br)ccc1=O [Example 197, 3-amino-6-(2-bromophenyl)-5-(1-isopropyl-6-oxo-1,6-dihydro-3-pyridazinyl)-2-pyrazinecarbonitrile]
234 to 236 °C | Cn1nc(-c2nc(C#Cc3ccccc3)c(N)nc2-c2ccccc2)ccc1=O [Example 77, 6-[5-amino-3-phenyl-6-(phenylethynyl)-2-pyrazinyl]-2-methyl-3(2H)-pyridazinone]
> 250 °C | Cc1nc(-c2ccc(=O)n(C(C)C)n2)c(-c2ccccc2)nc1O [Example 2, 6-(5-Hydroxy-6-methyl-3-phenyl-2-pyrazinyl)-2-isopropyl-3(2H)-pyridazinone]
232 to 234 °C | Cn1nc(-c2nc(NCCc3ccccc3)c(N)nc2-c2ccccc2)ccc1=O [Example 125, 6-{5-amino-3-phenyl-6-[(2-phenylethyl)amino]-2-pyrazinyl}-2-methyl-3(2H)-pyridazinone]
224 to 225.5 °C | CC(C)n1nc(-c2nc(-c3cccnc3)c(N)nc2-c2ccccc2)ccc1=O [Example 84, 6-[5-amino-3-phenyl-6-(3-pyridyl)-2-pyrazinyl]-2-isopropyl-3(2H)-pyridazinone]
185 to 187 °C | Cn1nc(-c2nc(OCCN3CCOCC3)c(N)nc2-c2ccccc2)ccc1=O [Example 181, 6-{5-amino-6-[2-(4-morpholinyl)ethoxy]-3-phenyl-2-pyrazinyl}-2-methyl-3(2H)-pyridazinone]
220 to 222 °C | Cn1nc(-c2nc(Br)c(N)nc2-c2ccccc2)ccc1=O [Example 60, 6-(5-amino-6-bromo-3-phenyl-2-pyrazinyl)-2-methyl-3(2H)-pyridazinone]
147 to 149 °C | Cn1nc(-c2nc(OC3CCN(Cc4ccccc4)CC3)c(N)nc2-c2ccccc2)ccc1=O [Example 185, 6-{5-amino-6-[(1-benzyl-4-piperidinyl)oxy]-3-phenyl-2-pyrazinyl}-2-methyl-3(2H)-pyridazinone]
128 to 130 °C | COCCOc1nc(-c2ccc(=O)n(C(C)C)n2)c(-c2ccccc2)nc1N [Example 166, 6-[5-amino-6-(2-methoxyethoxy)-3-phenyl-2-pyrazinyl]-2-isopropyl-3(2H)-pyridazinone]
181 to 183.5 °C | CC(C)n1nc(-c2nc(NCc3ccccc3)c(N)nc2-c2ccccc2)ccc1=O [Example 96, 6-[5-amino-6-(benzylamino)-3-phenyl-2-pyrazinyl]-2-isopropyl-3(2H)-pyridazinone]
233 to 235 °C | CC(C)n1nc(-c2nc(C(=O)O)c(N)nc2-c2ccccc2)ccc1=O [Example 8, 3-amino-6-(1-isopropyl-6-oxo-1,6-dihydro-3-pyridazinyl)-5-phenyl-2-pyrazinecarboxylic acid]
233 to 235 °C | CC(C)n1nc(-c2nc(OCC(F)(F)F)c(N)nc2-c2ccccc2)ccc1=O [Example 171, 6-[5-amino-3-phenyl-6-(2,2,2-trifluoroethoxy)-2-pyrazinyl]-2-isopropyl-3(2H)-pyridazinone]
> 250 °C | CC(C)n1nc(-c2nc(-n3cnc4ccccc43)c(N)nc2-c2ccccc2)ccc1=O [Example 152, 6-[5-amino-6-(1H-benzimidazol-1-yl)-3-phenyl-2-pyrazinyl]-2-isopropyl-3(2H)-pyridazinone]
204 to 206 °C | CC(C)n1nc(-c2nc(Br)c(N)nc2-c2ccccc2)ccc1=O [Example 53, 6-(5-amino-6-bromo-3-phenyl-2-pyrazinyl)-2-isopropyl-3(2H)-pyridazinone]
217 °C (dec.) | C#Cc1nc(-c2ccc(=O)n(C(C)C)n2)c(-c2ccccc2)nc1N [Example 76, 6-(5-amino-6-ethynyl-3-phenyl-2-pyrazinyl)-2-isopropyl-3(2H)-pyridazinone]
86 to 91 °C | CC(C)n1nc(-c2nc(NC3CCN(Cc4ccccc4)C3)c(N)nc2-c2ccccc2)ccc1=O (centres unmarked) [Example 138, 6-{5-amino-6-[(1-benzyl-3-pyrrolidinyl)amino]-3-phenyl-2-pyrazinyl)-2-isopropyl-3(2H)-pyridazinone]
